Earlier results in PMC9290462 (British Journal of Clinical Pharmacology, 2020).

Columns and labels:
[1] = tested on: patients with moderate‐to‐severe SLE

Structure (SMILES)	alanine aminotransferase, aspartate aminotransferase and lipase	bleeding events (healthy volunteers)	tolerability (healthy volunteers)	primary efficacy endpoint [1]
Cc1c(-c2c(F)cc(C(N)=O)c3[nH]c4c(c23)CC[C@H](C(C)(C)O)C4)cccc1-n1c(=O)c2cccc(F)c2n(C)c1=O [BMS‐986142]	associated with increases	–	–	–
C=CC(=O)N1CCC(CNc2ncnc(N)c2-c2ccc(Oc3ccccc3)cc2)CC1 [Evobrutinib, evobrutinib]	associated with increases	–	–	–
C[C@H]1CN(C2COC2)CCN1c1ccc(Nc2cc(-c3ccnc(N4CCn5c(cc6c5CC(C)(C)C6)C4=O)c3CO)cn(C)c2=O)nc1 [fenebrutinib]	–	no reported bleeding events	well tolerated	failed to meet its primary efficacy endpoint
